Data: ChEMBL document CHEMBL3885861, “Open TG-GATES”

Species on record: Rattus norvegicus
Assay: Open TG-GATES - Regimen: Daily Repeat
Format: toxicity, organism-based, Sprague-Dawley
Design: regimen Daily Repeat, gender Male, age 6 weeks
Conditions: in vivo, po, route gavage; for APTT / Bas / Eos / Fbg / Hb / Ht / Lym / MCH / MCHC / MCV / Mono / Neu / PT / Plat / RBC / Ret / WBC: tissue Blood; for KIDNEY_L / KIDNEY_R / KIDNEY_TOTAL: tissue Kidney; for LIVER: tissue Liver; for A/G / ALP / ALT / AST / BUN / CRE / Ca / Cl / DBIL / GLC / IP / K / LDH / Na / PL / RALB / TBIL / TC / TG / TP / gamma-GTP: tissue Plasma
[1] = 120 mg/kg, 72 h, dose level Middle, time 3 day
[2] = 120 mg/kg, […], dose level Middle, time 7 day
[3] = 120 mg/kg, […], dose level Middle, time 14 day
[4] = 120 mg/kg, […], dose level Middle, time 28 day
[5] = 400 mg/kg, 72 h, dose level High, time 3 day
[6] = 400 mg/kg, […], dose level High, time 7 day
[7] = 400 mg/kg, […], dose level High, time 14 day
[8] = 400 mg/kg, […], dose level High, time 28 day

## COc1ccc(Cc2nccc3cc(OC)c(OC)cc23)cc1OC [PAPAVERINE]
[1]
  TERMINAL_BW: 245.2 g
  APTT: 22.2 s
  Bas: 0%
  Eos: 1%
  Fbg: 316.2 mg/dL
  Hb: 13.6 g/dL
  Ht: 40.6%
  Lym: 77.8%
  MCH: 20.8 pg
  MCHC: 33.5%
  MCV: 62.1 fL
  Mono: 2.6%
  Neu: 17.8%
  PT: 15.3 s
  Plat: 116.6 x10_4/uL
  RBC: 654.2 x10_4/ul
  Ret: 6.2%
  WBC: 84.6 x10_2/uL
  KIDNEY_L: 1 g
  KIDNEY_R: 1 g
  KIDNEY_TOTAL: 2 g
  LIVER: 11.7 g
  A/G: 1.2
  ALP: 1731.2 IU/L
  ALT: 43 IU/L
  AST: 72 IU/L
  BUN: 15.8 mg/dL
  CRE: 0.2 mg/dL
  Ca: 10.9 mg/dL
  Cl: 106.8 meq/L
  DBIL: 0 mg/dL
  GLC: 195.8 mg/dL
  IP: 7.3 mg/dL
  K: 4.3 meq/L
  LDH: 179.2 IU/L
  Na: 142.6 meq/L
  PL: 144 mg/dL
  RALB: 3.1 g/dL
  TBIL: 0.006 mg/dL
  TC: 77.2 mg/dL
  TG: 98.6 mg/dL
  TP: 5.7 g/dL
  gamma-GTP: 1.2 IU/L
[2]
  TERMINAL_BW: 287 g
  APTT: 21.9 s
  Bas: 0%
  Eos: 1%
  Fbg: 314.8 mg/dL
  Hb: 13.4 g/dL
  Ht: 39.9%
  Lym: 76.8%
  MCH: 21 pg
  MCHC: 33.6%
  MCV: 62.6 fL
  Mono: 2.8%
  Neu: 18.6%
  PT: 15 s
  Plat: 122.9 x10_4/uL
  RBC: 638.8 x10_4/ul
  Ret: 6.6%
  WBC: 106.6 x10_2/uL
  KIDNEY_L: 1.2 g
  KIDNEY_R: 1.2 g
  KIDNEY_TOTAL: 2.4 g
  LIVER: 13.8 g
  A/G: 1.2
  ALP: 1633.8 IU/L
  ALT: 45.4 IU/L
  AST: 68.8 IU/L
  BUN: 17.2 mg/dL
  CRE: 0.2 mg/dL
  Ca: 10.8 mg/dL
  Cl: 106 meq/L
  DBIL: 0 mg/dL
  GLC: 197.4 mg/dL
  IP: 7.2 mg/dL
  K: 4 meq/L
  LDH: 173.4 IU/L
  Na: 141.4 meq/L
  PL: 149 mg/dL
  RALB: 3.1 g/dL
  TBIL: 0 mg/dL
  TC: 73.4 mg/dL
  TG: 123.2 mg/dL
  TP: 5.6 g/dL
  gamma-GTP: 2.2 IU/L
[3]
  TERMINAL_BW: 331.7 g
  APTT: 22.2 s
  Bas: 0%
  Eos: 1%
  Fbg: 341.6 mg/dL
  Hb: 14.1 g/dL
  Ht: 42.1%
  Lym: 71.2%
  MCH: 20 pg
  MCHC: 33.6%
  MCV: 59.7 fL
  Mono: 3.4%
  Neu: 22.8%
  PT: 15.1 s
  Plat: 117.8 x10_4/uL
  RBC: 706.4 x10_4/ul
  Ret: 5.2%
  WBC: 121.3 x10_2/uL
  KIDNEY_L: 1.3 g
  KIDNEY_R: 1.3 g
  KIDNEY_TOTAL: 2.6 g
  LIVER: 14.4 g
  A/G: 1.1
  ALP: 1378.8 IU/L
  ALT: 48 IU/L
  AST: 75.4 IU/L
  BUN: 18.6 mg/dL
  CRE: 0.2 mg/dL
  Ca: 10.5 mg/dL
  Cl: 106.6 meq/L
  DBIL: 0 mg/dL
  GLC: 191 mg/dL
  IP: 7.2 mg/dL
  K: 4 meq/L
  LDH: 166 IU/L
  Na: 142.6 meq/L
  PL: 156 mg/dL
  RALB: 3.1 g/dL
  TBIL: 0.014 mg/dL
  TC: 81.8 mg/dL
  TG: 109.8 mg/dL
  TP: 5.8 g/dL
  gamma-GTP: 2.4 IU/L
[4]
  TERMINAL_BW: 380.1 g
  APTT: 23.2 s
  Bas: 0%
  Eos: 1%
  Fbg: 339.2 mg/dL
  Hb: 14.3 g/dL
  Ht: 43.4%
  Lym: 77.6%
  MCH: 18.5 pg
  MCHC: 33%
  MCV: 56.1 fL
  Mono: 2.8%
  Neu: 17%
  PT: 15.8 s
  Plat: 100.4 x10_4/uL
  RBC: 773 x10_4/ul
  Ret: 2.7%
  WBC: 122.5 x10_2/uL
  KIDNEY_L: 1.4 g
  KIDNEY_R: 1.4 g
  KIDNEY_TOTAL: 2.8 g
  LIVER: 15.7 g
  A/G: 1.1
  ALP: 1042.8 IU/L
  ALT: 40.4 IU/L
  AST: 66.4 IU/L
  BUN: 18.2 mg/dL
  CRE: 0.2 mg/dL
  Ca: 10.1 mg/dL
  Cl: 106.2 meq/L
  DBIL: 0 mg/dL
  GLC: 191.4 mg/dL
  IP: 6 mg/dL
  K: 3.9 meq/L
  LDH: 120 IU/L
  Na: 141.8 meq/L
  PL: 129.8 mg/dL
  RALB: 3.1 g/dL
  TBIL: 0.01 mg/dL
  TC: 65.2 mg/dL
  TG: 119.8 mg/dL
  TP: 5.9 g/dL
  gamma-GTP: 2 IU/L
[5]
  TERMINAL_BW: 239.4 g
  APTT: 23.7 s
  Bas: 0%
  Eos: 1%
  Fbg: 314.4 mg/dL
  Hb: 13.5 g/dL
  Ht: 39.4%
  Lym: 73%
  MCH: 20.9 pg
  MCHC: 34.2%
  MCV: 61.1 fL
  Mono: 2%
  Neu: 23%
  PT: 15 s
  Plat: 111.3 x10_4/uL
  RBC: 644.8 x10_4/ul
  Ret: 5%
  WBC: 85.7 x10_2/uL
  KIDNEY_L: 1 g
  KIDNEY_R: 1.1 g
  KIDNEY_TOTAL: 2.1 g
  LIVER: 11.8 g
  A/G: 1.3
  ALP: 1542 IU/L
  ALT: 48.4 IU/L
  AST: 75.8 IU/L
  BUN: 16.6 mg/dL
  CRE: 0.1 mg/dL
  Ca: 10.9 mg/dL
  Cl: 107.4 meq/L
  DBIL: 0 mg/dL
  GLC: 179.8 mg/dL
  IP: 7.3 mg/dL
  K: 4.3 meq/L
  LDH: 160.2 IU/L
  Na: 143 meq/L
  PL: 148.4 mg/dL
  RALB: 3.1 g/dL
  TBIL: 0.008 mg/dL
  TC: 83 mg/dL
  TG: 78.4 mg/dL
  TP: 5.6 g/dL
  gamma-GTP: 1.4 IU/L
[6]
  TERMINAL_BW: 267.4 g
  APTT: 24.2 s
  Bas: 0%
  Eos: 0.4%
  Fbg: 337.4 mg/dL
  Hb: 13.6 g/dL
  Ht: 40.4%
  Lym: 74.4%
  MCH: 20.9 pg
  MCHC: 33.7%
  MCV: 61.9 fL
  Mono: 3%
  Neu: 20.8%
  PT: 15.2 s
  Plat: 126.4 x10_4/uL
  RBC: 652 x10_4/ul
  Ret: 5.8%
  WBC: 107.2 x10_2/uL
  KIDNEY_L: 1.2 g
  KIDNEY_R: 1.2 g
  KIDNEY_TOTAL: 2.3 g
  LIVER: 13.4 g
  A/G: 1.2
  ALP: 1249.6 IU/L
  ALT: 42.6 IU/L
  AST: 68 IU/L
  BUN: 18 mg/dL
  CRE: 0.2 mg/dL
  Ca: 10.9 mg/dL
  Cl: 107 meq/L
  DBIL: 0 mg/dL
  GLC: 191.8 mg/dL
  IP: 7.2 mg/dL
  K: 4.2 meq/L
  LDH: 164 IU/L
  Na: 142 meq/L
  PL: 149.4 mg/dL
  RALB: 3.1 g/dL
  TBIL: 0 mg/dL
  TC: 79.4 mg/dL
  TG: 91 mg/dL
  TP: 5.8 g/dL
  gamma-GTP: 2 IU/L
[7]
  TERMINAL_BW: 315.9 g
  APTT: 24.2 s
  Bas: 0%
  Eos: 1%
  Fbg: 321.6 mg/dL
  Hb: 14.1 g/dL
  Ht: 42.3%
  Lym: 75.4%
  MCH: 19.3 pg
  MCHC: 33.3%
  MCV: 58.2 fL
  Mono: 2.8%
  Neu: 19.2%
  PT: 15.4 s
  Plat: 128.5 x10_4/uL
  RBC: 728.6 x10_4/ul
  Ret: 4.3%
  WBC: 108.5 x10_2/uL
  KIDNEY_L: 1.4 g
  KIDNEY_R: 1.4 g
  KIDNEY_TOTAL: 2.7 g
  LIVER: 14.4 g
  A/G: 1.1
  ALP: 1494.6 IU/L
  ALT: 46.4 IU/L
  AST: 71 IU/L
  BUN: 17 mg/dL
  CRE: 0.2 mg/dL
  Ca: 10.5 mg/dL
  Cl: 106.8 meq/L
  DBIL: 0 mg/dL
  GLC: 183 mg/dL
  IP: 7.5 mg/dL
  K: 4.1 meq/L
  LDH: 142.6 IU/L
  Na: 142.8 meq/L
  PL: 143.8 mg/dL
  RALB: 3.1 g/dL
  TBIL: 0.02 mg/dL
  TC: 73.6 mg/dL
  TG: 81.8 mg/dL
  TP: 5.8 g/dL
  gamma-GTP: 2.4 IU/L
[8]
  TERMINAL_BW: 373.4 g
  APTT: 25.6 s
  Bas: 0%
  Eos: 1%
  Fbg: 328 mg/dL
  Hb: 14.4 g/dL
  Ht: 43.7%
  Lym: 71.8%
  MCH: 18.6 pg
  MCHC: 33%
  MCV: 56.6 fL
  Mono: 2.2%
  Neu: 23.8%
  PT: 15.9 s
  Plat: 109.9 x10_4/uL
  RBC: 772.5 x10_4/ul
  Ret: 2.6%
  WBC: 94.3 x10_2/uL
  KIDNEY_L: 1.5 g
  KIDNEY_R: 1.5 g
  KIDNEY_TOTAL: 2.9 g
  LIVER: 16.5 g
  A/G: 1.1
  ALP: 1162 IU/L
  ALT: 47 IU/L
  AST: 69.5 IU/L
  BUN: 19.8 mg/dL
  CRE: 0.2 mg/dL
  Ca: 10.3 mg/dL
  Cl: 106.2 meq/L
  DBIL: 0 mg/dL
  GLC: 182 mg/dL
  IP: 6.6 mg/dL
  K: 4 meq/L
  LDH: 141 IU/L
  Na: 142.5 meq/L
  PL: 146.2 mg/dL
  RALB: 3.2 g/dL
  TBIL: 0.0075 mg/dL
  TC: 82.2 mg/dL
  TG: 86 mg/dL
  TP: 6.1 g/dL
  gamma-GTP: 2.2 IU/L
